Test results: US20130287688A1, “NOVEL COMPOSITIONS AND USES OF ANTI-HYPERTENSION AGENTS FOR CANCER THERAPY” (XTUIT PHARMACEUTICALS, INC., priority 2010, published 2013)

Key:
[1] = system: HSTS26T tumors; experiment: Second harmonic generation (SHG) imaging of fibrillar collagen in dorsal skin fold chamber tumors; type: in vivo, SCID mice; conditions: for decrease in SHG levels (collagen): end of 15 days
Description: Cozaar (losartan potassium) tablets were ground using a mortar and pestle. The powder was then dissolved in water to obtain a concentration of 2.5 mg/ml. The solution was then filtered and stored in a sterile container.
Second Harmonic Imaging (SHG) imaging was performed in dorsal chamber tumors with a custom-built multiphoton laser-scanning microscope (Brown E, et al. (2003) Nat Med 9:796-800). Polarized light from a Ti:Sapphire laser (Mai-Tai Broadband: Spectra-Physics, Mountain View, Calif.) was converted to circularly polarized light using a zero order quarter wave plate (Newport Corporation, Irvine, Calif.). An excitation wavelength of 810 nm and detected SHG signals at 405 nm was used. SCID mice bearing HSTS26T tumors in dorsal chambers were either treated with losartan (10, 20 or 60 mg/kg/day) or saline for the duration of the dose response experiment (15 days). Vascular markers were used to locate 4 regions of interest in each mouse and periodically returned to the same region of SHG imaging. SHG images were analyzed with a custom-built Matlab (The MathWorks, Inc., Natick, Mass.) code. The fraction of the region of interest (ROI) that was positive for the SHG signal was normalized to the amount of SHG signal obtained on day 1 of the dose response study (before initiation of losartan or saline treatment).

[2] = system: L3.6 pl orthotopic pancreatic tumors; experiment: Distribution and penetration of intravenously injected 100 nm nanoparticles; type: in vivo, mice; conditions: i.v. injected 100 nm nanoparticles
Description: The inventors then assessed the effect of losartan on blood vessel perfusion and the intratumoral distribution of i.v. injected nanoparticles in mice with orthotopic pancreatic tumors (L3.6 pl).
A total volume of 10 μl at a concentration of 3.6×10^13 nanoparticles/ml was injected via the tail vein. Twenty-four hrs later 50 μl of FITC-lectin was injected to identify functional vessels. Five min after the lectin-injection tumors were resected, fixed in paraformaldehyde and embedded in OCT. Tumors were then sectioned before confocal imaging and analysis. The extent of nanosphere distribution was determined by measuring the fraction of pixels brighter than the background signal. Nanosphere penetration was determined by drawing contours around perfused vessels and recording the fraction of pixels positive for nanospheres in each contour. Contours extended out to 30 μm for each perfused vessel. Using a previously described algorithm (Tong R T, et al. (2004) Cancer Res 64:3731-3736), the inventors fit the plot of nanosphere fraction and distance away from the vessel to an exponential and obtained a relative penetration depth of nanospheres from each vessel.

[3] = system: E0771 breast tumors; experiment: Tumor matrix level histology (collagen I); parameters: species or system SCID mouse; conditions: mouse, in vivo
Description: Collagen levels were used as a metric of matrix production as described in Diop-Frimpong et al., Proc Nall Acad Sci USA. […] Next, solid stress in these tumors was measured using recently established technique described in Stylianopoulos T, et al., Growth-induced mechanical stress in murine and human tumors: causes, consequences and remedies. under review.
Vessel perfusion, matrix level, and hypoxia histology: For breast tumors, mice bearing orthotopic E0771 were split into treatment groups, time-matched for time after implantation and size-matched for tumor volume at this time (−100 mm^3). For pancreatic tumors, mice bearing orthotopic AK4.4 were split into treatment groups, size-matched for tumor volume (˜22 mm^3), 6 days after implantation. […] On the day of the last treatment, mice were slowly (−2 min) injected with 100 μL of 1 mg/mL biotinylated lectin (Vector Labs), administered retro-orbitally 5 min prior to tumor removal. For hypoxia studies, the mice were also injected with 60 mg/kg of 10 mg/mL pimonidazole 1 hr prior to tumor removal. […] For matrix staining, collagen I was detected using the LF-67 antibody provided by Dr. Larry Fisher (National Institute of Dental Research, Bethesda, Md.).
Histological image analysis: Eight random images (four interior, four periphery) at 20× magnification were taken from each slide using a confocal microscope (Olympus). […] For perfusion, the number of vessels counted by this program with colocalization of lectin and CD31 staining was divided by the number of vessels counted with CD31 staining. For vessel metrics, including diameter and density, the program determined the average size of all counted vessels and their length, as well as the count per area Images of collagen I stained sections were analyzed based on the area fraction of positive staining and on the average staining intensity (concentration) in each image. […] Images of hypoxia staining with pimonidazole were similarly analyzed for the area fraction of positive staining, counting the fraction of pixels above a threshold based on background intensity.

[4] = system: E0771 tumors; experiment: Solid stress (tumor opening technique); parameters: species or system mice; conditions: mouse, in vivo
Description: Solid stress was assessed using an ex vivo technique involving the measurement of the extent of tumor tissue relaxation (tumor opening relative to tumor diameter) following a stress-releasing incision, with larger openings indicating higher stress.
When the tumors reached a size of −1 cm in diameter, the mice were anesthetized. Subsequently, each tumor was excised, washed with Hanks' Balanced Salt Solution (HBSS) and its three dimensions were measured. Each tumor was cut along its longest axis, to a depth of 80% of its shortest dimension, using a scalpel. The tumors were allowed to relax for 10 minutes in HBSS to diminish any transient, poro-elastic responses. Afterwards, the opening resulting from the cut was measured at the middle of the cut at the surface of the tumor. Solid stress is proportional to the size of the opening relative to the size of the dimension perpendicular to the cut.

[5] = system: E0771 tumors; experiment: Mathematical analysis of perfused vessel network (multiphoton microscopy); type: in vivo, mice

## CCCCc1nc(Cl)c(CO)n1Cc1ccc(-c2ccccc2-c2nn[nH]n2)cc1 [losartan]
[1]; 10 mg/kg/day i.p.
  intratumoral SHG signal intensity: did not have a significant effect
  decrease in SHG levels (collagen): 20%
[1]; 20 mg/kg/day i.p.
  intratumoral SHG signal intensity: significantly reduced
  decrease in SHG levels (collagen): 33%
[1]; 60 mg/kg/day i.p.
  intratumoral SHG signal intensity: significantly reduced
  decrease in SHG levels (collagen): 67%
[2]
  nanoparticle content in tumors vs control: two-fold increase
[3]
  concentration of collagen I (staining intensity): reduces
  matrix production, collagen I area fraction: decreases
[4]
  solid stress: reduces solid stress
[5]; from a typical 1.89 in tumors toward 2.0 of normal capillary beds
  fractal dimension of vessel network: increases
[5]; pre- and post-treatment (days 2-5)
  maximum distance drugs and oxygen must travel to reach tumor cells: decreases
